Experimental data: ChEMBL document CHEMBL1201862, “PubChem BioAssay data set” (2004)
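Step 1: Grow cells in 96-well plates. Step 2: Expose to compound for 48 hours at 5 concentrations. Step 3: Interpolate endpoints linearly; if unreached, use highest concentration. GI50 = concentration required for 50% inhibition of growth.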 Activity calls are given as the source filed them. Rule as the data show it: active = GI50 up to about 1.1 µM and inactive = higher.

Experiments:
Assay in all cases: NCI-60 cell line screen, 48 h
SNB-19 = tested on: SNB-19
ACHN = tested on: ACHN
HCT-15 = tested on: HCT-15
HT-29 = tested on: HT-29
M14 = tested on: M14
KM12 = tested on: KM12
SR = tested on: SR
CCRF-CEM = tested on: CCRF-CEM
NCI-H460 = tested on: NCI-H460
TK-10 = tested on: TK-10
UACC-62 = tested on: UACC-62
SN12C = tested on: SN12C
SF-268 = tested on: SF-268
LOX IMVI = tested on: LOX IMVI
OVCAR-8 = tested on: OVCAR-8
SK-OV-3 = tested on: SK-OV-3
HOP-92 = tested on: HOP-92
CAKI-1 = tested on: CAKI-1
SNB-75 = tested on: SNB-75

Row | SMILES | GI50 (SNB-19) | GI50 (ACHN) | GI50 (HCT-15) [µM] | GI50 (HT-29) | GI50 (M14) | GI50 (KM12) | GI50 (SR) | GI50 (CCRF-CEM) | GI50 (NCI-H460) | GI50 (TK-10) | GI50 (UACC-62) | GI50 (SN12C) | GI50 (SF-268) | GI50 (LOX IMVI) | GI50 (OVCAR-8) | GI50 (SK-OV-3) | GI50 (HOP-92) | GI50 (CAKI-1) | GI50 (SNB-75)
1 | Cc1ccc(S(=O)(=O)OC(c2ccc(Cl)cc2Cl)C2OC(=O)c3ccccc32)cc1 (centres undefined) | 42.7 µM (inactive) | > 100 µM (inactive) | 56.5 | 38.6 µM (inactive) | > 100 µM (inactive) | 36 µM (inactive) | 30.6 µM (inactive) | 34.8 µM (inactive) | 35.8 µM (inactive) | > 100 µM (inactive) | 53.8 µM (inactive) | > 100 µM (inactive) | 51.3 µM (inactive) | > 100 µM (inactive) | > 100 µM (inactive) |  |  |  | 
2 | CCc1ccccc1NC(=O)C(=O)C(C#N)c1c(Cl)cccc1Cl (centres undefined) | > 100 µM (inactive) | > 100 µM (inactive) | > 100 | > 100 µM (inactive) | > 100 µM (inactive) | > 100 µM (inactive) | > 100 µM (inactive) | > 100 µM (inactive) |  | > 100 µM (inactive) | > 100 µM (inactive) | > 100 µM (inactive) | > 100 µM (inactive) | > 100 µM (inactive) |  | > 100 µM (inactive) | > 100 µM (inactive) | > 100 µM (inactive) | > 100 µM (inactive)
3 | CCN1C(=O)N(C)C(O)c2c1nc1ccccn1c2=O (centres undefined) | 39.4 µM (inactive) | 0.232 µM (active) | 32.2 | 27.6 µM (inactive) | 32.1 µM (inactive) | 36.5 µM (inactive) | 29.1 µM (inactive) | 27.8 µM (inactive) | 20.6 µM (inactive) | 22.1 µM (inactive) | 0.103 µM (active) | 23.3 µM (inactive) | 25.4 µM (inactive) | 17.5 µM (inactive) | 18.9 µM (inactive) | 26.1 µM (inactive) | 25.6 µM (inactive) |  | 20.6 µM (inactive)
4 | CC(=O)OCC(=O)[C@@]12OC(C)(C)O[C@@H]1C[C@H]1[C@@H]3CC(C=O)=C4C=C(OCCCl)CC[C@]4(C)[C@@]3(F)[C@@H](O)C[C@@]12C [FORMOCORTAL] | 30.2 µM (inactive) | > 100 µM (inactive) | 11.6 | 12.5 µM (inactive) | 20.6 µM (inactive) | 16.7 µM (inactive) | 13 µM (inactive) | 0.486 µM (active) | 14.1 µM (inactive) | 33.9 µM (inactive) | > 100 µM (inactive) | 13.3 µM (inactive) | 34.9 µM (inactive) | 25.8 µM (inactive) | 12.9 µM (inactive) | 1.39 µM (inactive) | 20.9 µM (inactive) |  | 
5 | O=C1CCCC2=C1CC1=C(CCCC1=O)N2c1ccc([N+](=O)[O-])cc1 | > 100 µM (inactive) | > 100 µM (inactive) | > 100 | > 100 µM (inactive) | > 100 µM (inactive) | > 100 µM (inactive) | > 100 µM (inactive) | > 100 µM (inactive) | > 100 µM (inactive) | > 100 µM (inactive) | > 100 µM (inactive) | > 100 µM (inactive) | > 100 µM (inactive) | > 100 µM (inactive) | > 100 µM (inactive) | > 100 µM (inactive) |  | > 100 µM (inactive) | > 100 µM (inactive)
6 | N#CCc1c(-c2ccccc2)n(S(=O)(=O)c2ccccc2)c2ccccc12 | 63.5 µM (inactive) | > 100 µM (inactive) | 82.8 | > 100 µM (inactive) | > 100 µM (inactive) | > 100 µM (inactive) | 12.2 µM (inactive) | > 100 µM (inactive) | > 100 µM (inactive) | > 100 µM (inactive) | 94.2 µM (inactive) |  | > 100 µM (inactive) |  | > 100 µM (inactive) |  | 8.89 µM (inactive) | > 100 µM (inactive) | 6.78 µM (inactive)
7 | O=C1c2c(c3c4ccccc4n4c3c3c2c2ccccc2n3C/C=C\C4)C(=O)N1Cc1ccccc1 | > 100 µM (inactive) | > 100 µM (inactive) | > 100 | > 100 µM (inactive) | > 100 µM (inactive) | > 100 µM (inactive) | > 100 µM (inactive) | > 100 µM (inactive) | > 100 µM (inactive) | > 100 µM (inactive) | > 100 µM (inactive) | > 100 µM (inactive) |  | > 100 µM (inactive) | > 100 µM (inactive) | > 100 µM (inactive) |  |  | 30.2 µM (inactive)
8 | NNC(=O)/C(=C/c1cccc([N+](=O)[O-])c1)NC(=O)c1ccccc1 | > 100 µM (inactive) | > 100 µM (inactive) | > 100 | > 100 µM (inactive) | > 100 µM (inactive) | > 100 µM (inactive) | > 100 µM (inactive) | > 100 µM (inactive) | > 100 µM (inactive) | > 100 µM (inactive) |  | > 100 µM (inactive) | > 100 µM (inactive) | > 100 µM (inactive) | > 100 µM (inactive) | > 100 µM (inactive) | > 100 µM (inactive) | > 100 µM (inactive) | > 100 µM (inactive)
9 | COC1OC(CBr)C(OC(=O)c2ccccc2)C(OS(=O)(=O)c2ccc(C)cc2)C1Br (centres undefined) | > 100 µM (inactive) | > 100 µM (inactive) | > 100 | > 100 µM (inactive) | > 100 µM (inactive) | > 100 µM (inactive) | > 100 µM (inactive) | > 100 µM (inactive) | > 100 µM (inactive) | > 100 µM (inactive) | > 10 µM (inactive) | > 100 µM (inactive) | > 100 µM (inactive) | > 100 µM (inactive) | > 100 µM (inactive) | > 10 µM (inactive) | 70.1 µM (inactive) | > 100 µM (inactive) | 
10 | CCOC(=O)C1=C(C)NC(c2ccccc2)=C(C(=O)OCc2ccccc2)C1C#Cc1ccccc1 (centres undefined) | > 100 µM (inactive) |  | > 100 |  | > 100 µM (inactive) | > 100 µM (inactive) | > 100 µM (inactive) | > 100 µM (inactive) |  | > 100 µM (inactive) | > 100 µM (inactive) | 12.4 µM (inactive) | > 100 µM (inactive) | > 100 µM (inactive) | > 100 µM (inactive) | > 100 µM (inactive) |  | 0.0675 µM (active) | > 100 µM (inactive)
11 | COc1ccc(C(=O)C(C(=O)CCC(=O)Nc2cccc(Cl)c2)c2ccc(OC)cc2)cc1 (centres undefined) | > 100 µM (inactive) | > 100 µM (inactive) | > 100 | > 100 µM (inactive) | > 100 µM (inactive) | > 100 µM (inactive) | > 100 µM (inactive) | > 100 µM (inactive) | > 100 µM (inactive) | > 100 µM (inactive) | > 100 µM (inactive) | > 100 µM (inactive) | > 100 µM (inactive) |  | > 100 µM (inactive) | > 100 µM (inactive) | > 100 µM (inactive) | > 100 µM (inactive) | 61.2 µM (inactive)
12 | COc1ccc(S(=O)(=O)Nc2ccccc2C(=O)O)cc1 | > 100 µM (inactive) | > 100 µM (inactive) | > 100 | > 100 µM (inactive) | > 100 µM (inactive) | > 100 µM (inactive) |  | > 100 µM (inactive) | > 100 µM (inactive) | > 100 µM (inactive) | > 100 µM (inactive) | > 100 µM (inactive) | > 100 µM (inactive) | > 100 µM (inactive) | > 100 µM (inactive) | > 100 µM (inactive) | 55.8 µM (inactive) | > 100 µM (inactive) | 68.1 µM (inactive)
13 | CCCCCCCCCCCCCCCCc1c(O)nc(NN)nc1C(=O)OC | > 50 µM (inactive) | > 50 µM (inactive) | > 50 | > 50 µM (inactive) | > 50 µM (inactive) | > 50 µM (inactive) |  | > 50 µM (inactive) | > 50 µM (inactive) | > 50 µM (inactive) | > 50 µM (inactive) | > 50 µM (inactive) | > 50 µM (inactive) | > 50 µM (inactive) | > 50 µM (inactive) | > 50 µM (inactive) | 22.4 µM (inactive) | > 50 µM (inactive) | > 50 µM (inactive)
14 | [N-]=[N+]=NC1(Cc2ccccc2)C(=O)c2cccc3c2N(CCC3)C1=O (centres undefined) |  | > 100 µM (inactive) | > 100 | > 100 µM (inactive) | > 100 µM (inactive) | > 100 µM (inactive) | > 100 µM (inactive) | > 100 µM (inactive) | > 100 µM (inactive) | > 100 µM (inactive) | > 100 µM (inactive) | > 100 µM (inactive) | > 100 µM (inactive) | > 100 µM (inactive) | > 100 µM (inactive) | 40.3 µM (inactive) | > 100 µM (inactive) | > 100 µM (inactive) | > 100 µM (inactive)
15 | Cc1ccc(-c2cc(-c3ccccc3)c(C#N)c(=O)[nH]2)cc1 | > 100 µM (inactive) | > 100 µM (inactive) | > 100 | > 100 µM (inactive) | > 100 µM (inactive) | > 100 µM (inactive) | > 100 µM (inactive) | > 100 µM (inactive) | > 100 µM (inactive) | > 100 µM (inactive) | > 100 µM (inactive) | > 100 µM (inactive) | > 100 µM (inactive) | > 100 µM (inactive) | > 100 µM (inactive) | > 100 µM (inactive) | 56.9 µM (inactive) |  | 53.2 µM (inactive)
16 | CCCCC(/C=N/NC(=N)N)CC.Cc1cc(O)c(C(C)C)cc1S(=O)(=O)O | 60 µM (inactive) | 56.6 µM (inactive) | 85.7 |  | 36.2 µM (inactive) | 52.4 µM (inactive) | 21.9 µM (inactive) | 56.2 µM (inactive) | 46.6 µM (inactive) | 61.7 µM (inactive) | 84.1 µM (inactive) | 97.5 µM (inactive) | > 100 µM (inactive) | 57.1 µM (inactive) | > 100 µM (inactive) | 59.8 µM (inactive) |  |  | 54 µM (inactive)
